Experimental data from patent publication US7282507B2, “Indole derivatives as selective androgen receptor modulators (SARMS)” (Janssen Pharmaceutica N.V., priority 2004, dated 2007).
Values joined by “and” are separate entries in the source; they are usually repeats but may differ in a detail not shown here. Identical values can stand only once. Like-named read-outs stand apart in the source and are kept apart here.

Tests used:
[1] = molecular target: T1, androgen receptor (AdEasy+rAR, L929 cells) (Rattus norvegicus, UniProt P15207); test: L929 Androgen Receptor Functional Assay, Adenovirus Transduction; type: cell-based; conditions: for % Activity, L929 androgen receptor functional assay / EC50: agonist testing; for inhibition at 3 µM: L929, antagonist testing with R1881, 3000 nM; for % Inhibition, L929 androgen receptor functional assay: antagonist testing with R1881, 3000 nM; for IC50: antagonist testing with R1881
T1 construct: expressed in transfected cells; host or cells: L929 cells transduced with adenovirus AdEasy+rAR
T1 sequence (P15207 1-902): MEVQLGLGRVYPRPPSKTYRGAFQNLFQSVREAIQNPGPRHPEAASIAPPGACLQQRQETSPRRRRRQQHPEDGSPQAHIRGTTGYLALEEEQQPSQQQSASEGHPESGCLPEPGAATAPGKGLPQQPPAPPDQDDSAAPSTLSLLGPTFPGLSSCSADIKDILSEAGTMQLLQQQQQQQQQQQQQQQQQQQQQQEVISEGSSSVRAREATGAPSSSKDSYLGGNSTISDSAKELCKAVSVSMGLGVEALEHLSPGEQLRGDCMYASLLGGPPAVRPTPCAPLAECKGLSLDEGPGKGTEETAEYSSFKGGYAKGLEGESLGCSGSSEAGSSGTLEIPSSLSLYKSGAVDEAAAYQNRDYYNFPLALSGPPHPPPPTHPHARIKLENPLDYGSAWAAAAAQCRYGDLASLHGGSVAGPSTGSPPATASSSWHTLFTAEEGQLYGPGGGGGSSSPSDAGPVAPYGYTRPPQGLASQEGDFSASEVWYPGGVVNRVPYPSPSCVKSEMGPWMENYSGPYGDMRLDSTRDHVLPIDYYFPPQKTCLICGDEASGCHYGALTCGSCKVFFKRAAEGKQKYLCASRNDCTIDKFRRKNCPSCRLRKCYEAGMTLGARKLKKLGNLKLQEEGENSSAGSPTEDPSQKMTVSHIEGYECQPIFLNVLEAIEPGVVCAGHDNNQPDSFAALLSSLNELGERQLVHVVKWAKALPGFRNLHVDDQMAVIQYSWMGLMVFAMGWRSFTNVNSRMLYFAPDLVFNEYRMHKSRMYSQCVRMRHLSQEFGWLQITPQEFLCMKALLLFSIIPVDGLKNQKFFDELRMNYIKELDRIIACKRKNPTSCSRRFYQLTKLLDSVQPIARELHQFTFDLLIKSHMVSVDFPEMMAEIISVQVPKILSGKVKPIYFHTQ
Method in brief: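 Luminescent reporter readout after 48 h at 37 °C: rat AR delivered by adenovirus (AdEasy+rAR, moi 1:500) into L929 cells grown without phenol red in charcoal-treated serum. Antagonist wells also received R1881 (2.5× dilution at 2.5 nM).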

[2] = molecular target: T2, androgen receptor (AdEasy+rAR, COS-7 cells) (Rattus norvegicus, UniProt P15207); test: COS-7 Whole-Cell Androgen Receptor Binding Assay, Adenovirus Transduction; conditions: for % Inhibition, COS Binding / inhibition at 3 µM: concentration of 3000 nM
T2 construct: expressed in transfected cells; host or cells: COS-7 cells transduced with adenovirus AdEasy+rAR
T2 sequence (P15207 1-902): T1 sequence (P15207 1-902)
Method: COS-7 cells were plated in 96-well plates at 20,000 cells per well, in a solution of DMEM/F12 (GIBCO) containing 10% (v/v) charcoal-treated fetal bovine serum (Hyclone) and lacking phenol red. The cells were then incubated overnight at 37° C. in 5% (v/v) humidified CO2.
Test compound solutions were prepared by diluting the test compound in 100% (v/v) DMSO, if necessary.
Next, 1 mL of DMEM/F12 lacking phenol red was pipetted into each of the wells of a 2-mL 96-well assay block. […] The wells were carefully mixed by pipette.
In a 15 mL or 50 mL sterile centrifuge tube, a dilution in DMEM/F12 of the adenovirus AdEasy+rAR at a moi of 1:50 per well was prepared.
The medium was removed from the 96-well plates by inversion and the plates dried very briefly, inverted, on a sterile towel. As soon as possible after medium removal, 40 μL of the diluted test compound was added to each well, in duplicate. […] The plates were then incubated for 48 hours at 37° C. in 5% (v/v) humidified CO2.
The medium was removed from the above incubated plates by inversion and dried. Each well was then washed with 0.35 mL of 1× PBS. The PBS was then removed from the plates by inversion and the plates dried.
To each well was then added 50 μL of 0.5% (v/v) Triton X-100 (Sigma) in 1× PBS and the plates placed on a rotary shaker for 5 min. The contents of each well were then transferred to an OptiPlate-96 (Packard) scintillation plate. To each well was then added 0.2 mL of Microscint-20 (Packard) and the wells counted on a TopCount (Packard).
Percent inhibition was determined by testing dilutions of the test compound (usually duplicates of 10 μM) in the binding assay. Counts per well were measured and percents of inhibition determined. […] Counts per well were measured and IC50s determined by linear regression.

[3] = tested on: testosterone-enhanced ventral prostate and seminal vesicle weights; test: Ventral Prostate and Seminal Vesicle Weight in vivo Assay; design: species or system rat; conditions: immature castrated male Sprague Dawley rats, once daily for five days, usually orally 40 mg/kg, with testosterone propionate 2 mg/kg s.c. Further: key: 'active' if the non weight adjusted prostate weight was ≦40 mg or the % Inhibition prostate weight, body weight adjusted was ≧40% @ 2 mg/day dosage; ID50's, if determined, of ≦15 mg/day also indicated an 'active' compound; listed herein as 'inactive' as they did not meet the specified criteria defined above.
Method in brief: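 Wet weights of ventral prostate and seminal vesicles were taken on day six. Castrated immature male Sprague Dawley rats had received five daily doses of testosterone propionate (2 mg/kg s.c.) together with test compound, typically 40 mg/kg orally. Activity was scored from absolute prostate weight or body-weight-adjusted % inhibition.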

[4] = read-out: IC50 (nM), COS Binding

SMILES	% Activity, L929 androgen receptor functional assay ([1]; 3000 nM) [%]	% Inhibition, COS Binding ([2]; 3 µM)	IC50 [2, 4]	active / inactive: inhibition of testosterone-enhanced prostate weight [3]	inhibition at 3 µM [1] [%]	inhibition at 3 µM [2] [%]	% Activity, L929 androgen receptor functional assay ([1]; 3000 nM, 3 µM)	% Inhibition, L929 androgen receptor functional assay ([1]; 3 µM) [%]	EC50 [1] [nM]	% Activity, L929 androgen receptor functional assay ([1]; @ 8000 nM)	IC50 [1]	% Inhibition, COS Binding [2] [%]	IC50 ([2]; IC50 (nM), COS Binding) [nM]
CN(C)c1ccccc1SCC(C)(O)c1cc2cc(Cl)c(C(F)(F)F)cc2[nH]1 (centres unmarked) [Compound 127]	−5	41% and 74%	> 1200 nM	inactive	–	–	–	–	–	–	–	–	–
CC(O)(CSCC(F)(F)F)c1cc2cc(F)c(C(F)(F)F)cc2[nH]1 (centres unmarked) [Compound 189]	3	–	280 nM	inactive	85	100	–	–	–	–	–	–	–
CC(O)(CSCc1cccs1)c1cc2cc([N+](=O)[O-])c(C(F)(F)F)cc2[nH]1 (centres unmarked) [Compound 197]	2	–	> 3000 nM	inactive	-26	86	–	–	–	–	–	–	–
CN(C)c1ccc(SCC(C)(O)c2cc3cc(Cl)c(C(F)(F)F)cc3[nH]2)cc1 (centres unmarked) [Compound 124]	−4	–	> 3000 nM	inactive	–	–	–	–	–	–	–	–	–
CC(O)(CSCC(F)(F)F)c1cc2cc([N+](=O)[O-])c(C(F)(F)F)cc2[nH]1 (centres unmarked) [Compound 201]	–	86%	340 nM	inactive	–	–	2%	83	–	–	–	–	–
CCS(=O)(=O)CC(C)(O)c1cc2cc(C#N)c(C(F)(F)F)cc2[nH]1 (single isomer, unassigned) [Compound 222, 2-(2-Ethanesulfonyl-1-hydroxy-1-methyl-ethyl)-6-trifluoromethyl-1H-indole-5-carbonitrile]	–	–	1580 nM	active	61	42	–	–	> 8000	0 @ 8000 nM %	2410 nM	–	–
C[S+]([O-])CCC(C)(O)c1cc2cc([N+](=O)[O-])c(C(F)(F)F)cc2[nH]1 (mixture of isomers) [Compound 50]	2	–	–	inactive	–	–	–	–	–	–	–	7	–
CCSCC(C)(O)c1cc2cc(C#N)c(C(F)(F)F)cc2[nH]1 (centres unmarked) [Compound 209]	–	–	1840 nM	active	–	61	–	–	> 8000	−3 @ 8000 nM %	372 nM	–	–
CCSCC(C)(O)c1cc2cc(C#N)c(C(F)(F)F)cc2[nH]1 (single isomer, unassigned) [Compound 217, 2-(2-Ethylsulfanyl-1-hydroxy-1-methyl-ethyl)-6-trifluoromethyl-1H-indole-5-carbonitrile]	5	38% and 61% and 69%	–	active	87	–	–	80	> 8000	0 @ 8000 nM %	969 nM and 415 nM and 810 nM	–	–
CCCS(=O)(=O)CC(C)(O)c1cc2cc([N+](=O)[O-])c(C(F)(F)F)cc2[nH]1 (centres unmarked) [Compound 177]	2	–	88 nM	active	89	90	–	–	–	–	–	–	–
CCSCC(C)(O)c1cc2cc(F)c(C(F)(F)F)cc2[nH]1 (centres unmarked) [Compound 159]	2	–	240 nM	active	–	–	–	–	–	–	–	–	–
CC(O)(CSCC(F)(F)F)c1cc2cc(Cl)c(C(F)(F)F)cc2[nH]1 (centres unmarked) [Compound 190]	1	–	292 nM	active	97	100	–	–	–	–	–	–	–
CC(O)(CSc1ccc(C(=O)O)cc1)c1cc2cc(Cl)c(C(F)(F)F)cc2[nH]1 (centres unmarked) [Compound 133]	−4	–	–	inactive	19	65	–	–	–	–	–	–	> 1500
CCSCC(C)(O)c1cc2cc([N+](=O)[O-])cc(C(F)(F)F)c2[nH]1 (centres unmarked) [Compound 212]	−3	–	98 nM	active	101	86	–	–	–	–	–	–	–
CCSCC(C)(O)c1cc2cc([N+](=O)[O-])c(C(F)(F)F)cc2n1C (single isomer, unassigned) [Compound 231]	–	78%	665 nM and > 3000 nM	active	–	73	0% and −1%	–	–	–	3180 nM	–	–
CCSCC(C)(O)c1[nH]c2cc(C(F)(F)F)c(C#N)cc2c1C (single isomer, unassigned) [Compound 233, 2-(2-Ethylsulfanyl-1-hydroxy-1-methyl-ethyl)-3-methyl-6-trifluoromethyl-1H-indole-5-carbonitrile]	–	95% and 81%	45.6 nM	active	97	–	0%	–	–	–	69.2 nM	–	–
CCSCC(C)(OC)c1cc2cc([N+](=O)[O-])c(C(F)(F)F)cc2[nH]1 (centres unmarked) [Compound 167]	–	–	> 3000 nM	active	–	–	–	–	–	–	–	–	–
